This is an account of results in article PMC8619202, “Optimization of Microwave-Assisted Green Method for Enhanced Solubilization of Water-Soluble Curcuminoids Prepared Using Steviol Glycosides” (Foods, 2021).

≈ marks a conversion by molar mass, not a printed value.

For series [1] the following is noted: cited from earlier work; for solubility in dimethyl sulfoxide / solubility in ethanol / solubility in water: from C. longa.
Series [2] can be described thus: Storage stability of curcuminoids solubilized in steviol glycoside solutions, HPLC. The note with it: for stability of solubilized curcuminoids at room temperature: 10% (w/v) SG, protected from light, 24 h. As for the experimental part:
(§1) In order to evaluate the stability in 10% (w/v) SGs, the water-soluble curcuminoids were analyzed by HPLC for 1 month. […] In order to achieve better solubility, transglycosylation is regarded as an important procedural phenomenon that leads to structural modifications and derivatizations that result in enhanced biological activities and improved solubility. Moreover, heating in the case of microwave irradiation is usually dependent on the nature of the sample, the solvent employed, and the irradiation power level mediated through the ionic conduction and dipole rotation (also known as dipole polarization) of the microwaves. In the absence of ions, water dipoles are found in the free form and may experience dipole rotation due to microwave radiation-induced oscillation.

The nature of series [3]: Solubility of curcuminoids in the presence of steviol glycosides, with or without microwave or other physical treatment, HPLC. The note with it: steviol glycoside 10% w/v; for Bisdemethoxycurcumin (mg/mL) NT / Curcumin (mg/mL) NT / Demethoxycurcumin (mg/mL) NT / Total Curcuminoids (mg/mL) NT: not treated by microwave. As for the experimental part:
The effect of water concentration to extract curcuminoids was investigated. […] The mixture in an ethanol solution was vortexed for 15 min and centrifuged at 12,000× g for 10 min (SupraR30, W × D × H: 710 × 1000 × 1260 mm, Hanil Scientific Inc., Gimp, Korea). The supernatant was transferred to a new tube and ethanol was evaporated. The resulting powders were dissolved in water, centrifuged at 12,000× g for 10 min, and filtered through a 0.20 μm membrane (Agilent, Santa Clara, CA, USA).
Weighing of the appropriate amounts of each steviol glycoside and curcuminoids was carried out, and they were put into 50 mL glass bottles. Furthermore, the suspension of curcuminoid–SG was subjected to heating by exposure to microwave irradiation in a microwave-assisted extractor (CEM, Matthews, NC, USA) at 100 W and 25 °C. Prior to conducting chromatographic analyses as per the reported method of Nguyen et al., the filtration of all samples was performed using a 0.45 μm nylon syringe filter (Millipore, Billerica, MA, USA). The quantitative concentration determination of curcuminoids and SGs was performed by employing series of standard solutions of curcuminoid in methanol with concentrations ranging from 0.15 to 10 μg/mL according to the reported method. Chromatographic separation for quantitative analysis was carried out using an Agilent 1200 liquid chromatographic system (Agilent Technologies, Palo Alto, CA, USA) equipped with an autosampler, quaternary HPLC pump, degasser, ZORBAX SB-C18 column (5 μm, 4.6 × 150 mm), and UV detector (VWD) set at 210 and 260 nm. The mobile phase for HPLC consisted of solvent A, which was 0.1% trifluoroacetic acid in water, and solvent B, which was 0.1% trifluoroacetic acid in acetonitrile. The solvent gradient was as follows (relative to solvent A): 0 min, 80% A; 10 min, 75% B; 20 min, 65% B; 30 min, 50% B; 40 min, 40%; 50 min, 30%; 60 min, 0% B; 0 min, 20%; 10 min, 25% B; 20 min, 35% B; 30 min, 50%; 40 min, 60%; 50 min, 70%; and 60 min, 100%. The column temperature was maintained at 30 °C with an injection volume of 10 μL at a flow rate of 1.0 mL/min.
as §1

As for `O=C(/C=C/c1ccc(O)cc1)CC(=O)/C=C/c1ccc(O)cc1` [BDMC, bisdemethoxycurcumin], in series [1], the “solubility in dimethyl sulfoxide” value was 25000 µg/mL (≈ 81.1 mM), the solubility in ethanol was 10000 µg/mL (≈ 32.4 mM) and the solubility in water was 11 µg/mL (≈ 0.0357 mM).

As to `COc1cc(/C=C/C(=O)CC(=O)/C=C/c2ccc(O)c(OC)c2)ccc1O` [Curcumin, curcumin], in series [1], the “solubility in dimethyl sulfoxide” value is 25000 µg/mL (≈ 67.9 mM), the solubility in ethanol is 10000 µg/mL (≈ 27.1 mM) and the solubility in water is 11 µg/mL (≈ 0.0299 mM).

With `COc1cc(/C=C/C(O)=C/C(=O)/C=C/c2ccc(O)cc2)ccc1O` [DMC, demethoxycurcumin], in series [1], the “solubility in dimethyl sulfoxide” value was 25000 µg/mL (≈ 73.9 mM), the solubility in ethanol was 10000 µg/mL (≈ 29.6 mM) and the solubility in water is 11 µg/mL (≈ 0.0325 mM).

Turning to `C=C1C[C@@]23CC[C@H]4[C@@](C)(CCC[C@@]4(C)C(=O)O[C@@H]4O[C@H](CO)[C@@H](O)[C@H](O)[C@H]4O)[C@@H]2CC[C@]1(O[C@@H]1O[C@H](CO)[C@@H](O)[C@H](O)[C@H]1O)C3` [R, rubusoside], in series [2], the “stability of solubilized curcuminoids at room temperature” value was “highly stable” and the “stability of aqueous curcuminoid solutions on long-term storage” value was “did not exhibit good stability”. Moreover, in series [1] (10% rubusoside aqueous solution (w/v)), the “solubility of curcumin in rubusoside aqueous solution” value was 600 to 2300 µg/mL.

In the case of `C=C1C[C@@]23CC[C@H]4[C@@](C)(CCC[C@@]4(C)C(=O)O)[C@@H]2CC[C@]1(O[C@@H]1O[C@H](CO)[C@@H](O)[C@H](O)[C@H]1O)C3` [SMG, steviol mono-glucoside], in series [3], the “Total Curcuminoids Ratio Microwave /NT (fold)” value turned out to be 7.3 fold, the “Bisdemethoxycurcumin (mg/mL) NT” value is given as 0.04 ± 0.01 mg/mL, the “Curcumin (mg/mL) NT” value is recorded as 0.46 ± 0.1 mg/mL and the “Demethoxycurcumin (mg/mL) NT” value worked out at 0.04 ± 0.01 mg/mL. In addition, in series [3], the “Total Curcuminoids (mg/mL) NT” value came out at 0.54 ± 0.1 mg/mL, the “Bisdemethoxycurcumin (mg/mL) Microwave” value is on record as 0.52 ± 0.1 mg/mL, the “Curcumin (mg/mL) Microwave” value worked out at 2.52 ± 0.15 mg/mL and the “Demethoxycurcumin (mg/mL) Microwave” value worked out at 0.88 ± 0.1 mg/mL. The “Total Curcuminoids (mg/mL) Microwave” value in series [3] is given as 3.92 ± 0.5 mg/mL.

For `C=C1C[C@@]23CC[C@H]4[C@@](C)(CCC[C@@]4(C)C(=O)O[C@@H]4O[C@H](CO)[C@@H](O)[C@H](O)[C@H]4O)[C@@H]2CC[C@]1(O[C@@H]1O[C@H](CO)[C@@H](O)[C@H](O)[C@H]1O[C@@H]1O[C@H](CO)[C@@H](O)[C@H](O)[C@H]1O)C3` [ST, stevioside], the “stability of solubilized curcuminoids at room temperature” value in series [2] is reported as “highly stable”.

For α-glucosyl stevioside [STG], in series [3], the “Total Curcuminoids Ratio Microwave /NT (fold)” value came to 7.0 fold, the “Bisdemethoxycurcumin (mg/mL) NT” value stood at 0.04 ± 0.01 mg/mL, the “Curcumin (mg/mL) NT” value came to 0.51 ± 0.2 mg/mL and the “Demethoxycurcumin (mg/mL) NT” value was determined as 0.05 ± 0.01 mg/mL. Further, in series [3], the “Total Curcuminoids (mg/mL) NT” value was found to be 0.61 ± 0.1 mg/mL, the “Bisdemethoxycurcumin (mg/mL) Microwave” value came to 0.69 ± 0.2 mg/mL, the “Curcumin (mg/mL) Microwave” value turned out to be 2.72 ± 0.3 mg/mL and the “Demethoxycurcumin (mg/mL) Microwave” value was 0.83 ± 0.1 mg/mL. In addition, in series [3], the “Total Curcuminoids (mg/mL) Microwave” value is 4.24 ± 0.6 mg/mL. Further, the “stability of aqueous curcuminoid solutions on long-term storage” value in series [2] is “very good stability”.
